Experimental data from patent US20250002473A1, “QUINOXALINE DERIVED SULFONAMIDES WITH EGFR DEGRADATION ACTIVITIES AND THEIR USES THEREOF” (Accutar Biotechnology Inc., priority 2023, published 2025).
Read-outs that look alike come from different tables or passages of the source.

Experiments:
Format in all cases: cell-based
[1] = tested on: BaF3_SVD; test: Cell growth inhibition assay (CellTiter-Glo), BaF3_SVD
Protocol: Cells were seeded in a 96-well plate (Corning 3610) with 90 μL of culture medium per well, and plates were incubated at 37° C. overnight. A 1,000× DMSO stock solution of the desired compound was prepared the following day. A compound dilution plate was prepared by diluting the stock solution 1:100 in the corresponding cell culture medium, 10 μL of the diluted compound solution was added to each 96-well plate well containing the seeded cells. Then, the cells were cultured at 37° C. for three days following compound treatment, 100 μL of CellTiter-Glo reagents (Promega G7573) was added to each well of the 96-well plate. The content of the wells was mixed by shaking continuously for 10 min, and luminescence was measured using Envision (PerkinElmer). The data were analyzed with GraphPad Prism 9 (see FIG. 50).
Table 6, Table 7, and Table 8 list the cell growth inhibition results, where Gls0 represents the compound concentration to cause 50% cell growth inhibition in comparison with DMSO.

[2] = target: T1, BaF3_ASV (EGFR_A776inASV) (Homo sapiens, UniProt P00533, DUP767-769); test: EGFR degradation assay (western blot), BaF3_ASV cells; settings: for DC50: BaF3_ASV cells
T1 construct: expressed in transfected cells; host or cells: Ba/F3 (engineered)
In short: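 Cells seeded overnight, then exposed to compounds for 24 h; lysates run on western blot, EGFR probed with tubulin loading control and fluorescent secondary detection. DC50 = concentration giving 50% EGFR degradation.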

[3] = tested on: A431; test: Cell growth inhibition assay (CellTiter-Glo), A431; settings: Homo sapiens, A431 cells
In short: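 Cells were plated in 96-well plates (Corning 3610) at 90 μL of culture medium per well and incubated overnight at 37° C. The next day, a 1,000× DMSO compound stock was diluted 1:100 in cell culture medium, and 10 μL was added per well. After shaking for 10 min, luminescence was read on an Envision (PerkinElmer) reader.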

T1 sequence (P00533 with tags, fused parts or gaps DUP767-769): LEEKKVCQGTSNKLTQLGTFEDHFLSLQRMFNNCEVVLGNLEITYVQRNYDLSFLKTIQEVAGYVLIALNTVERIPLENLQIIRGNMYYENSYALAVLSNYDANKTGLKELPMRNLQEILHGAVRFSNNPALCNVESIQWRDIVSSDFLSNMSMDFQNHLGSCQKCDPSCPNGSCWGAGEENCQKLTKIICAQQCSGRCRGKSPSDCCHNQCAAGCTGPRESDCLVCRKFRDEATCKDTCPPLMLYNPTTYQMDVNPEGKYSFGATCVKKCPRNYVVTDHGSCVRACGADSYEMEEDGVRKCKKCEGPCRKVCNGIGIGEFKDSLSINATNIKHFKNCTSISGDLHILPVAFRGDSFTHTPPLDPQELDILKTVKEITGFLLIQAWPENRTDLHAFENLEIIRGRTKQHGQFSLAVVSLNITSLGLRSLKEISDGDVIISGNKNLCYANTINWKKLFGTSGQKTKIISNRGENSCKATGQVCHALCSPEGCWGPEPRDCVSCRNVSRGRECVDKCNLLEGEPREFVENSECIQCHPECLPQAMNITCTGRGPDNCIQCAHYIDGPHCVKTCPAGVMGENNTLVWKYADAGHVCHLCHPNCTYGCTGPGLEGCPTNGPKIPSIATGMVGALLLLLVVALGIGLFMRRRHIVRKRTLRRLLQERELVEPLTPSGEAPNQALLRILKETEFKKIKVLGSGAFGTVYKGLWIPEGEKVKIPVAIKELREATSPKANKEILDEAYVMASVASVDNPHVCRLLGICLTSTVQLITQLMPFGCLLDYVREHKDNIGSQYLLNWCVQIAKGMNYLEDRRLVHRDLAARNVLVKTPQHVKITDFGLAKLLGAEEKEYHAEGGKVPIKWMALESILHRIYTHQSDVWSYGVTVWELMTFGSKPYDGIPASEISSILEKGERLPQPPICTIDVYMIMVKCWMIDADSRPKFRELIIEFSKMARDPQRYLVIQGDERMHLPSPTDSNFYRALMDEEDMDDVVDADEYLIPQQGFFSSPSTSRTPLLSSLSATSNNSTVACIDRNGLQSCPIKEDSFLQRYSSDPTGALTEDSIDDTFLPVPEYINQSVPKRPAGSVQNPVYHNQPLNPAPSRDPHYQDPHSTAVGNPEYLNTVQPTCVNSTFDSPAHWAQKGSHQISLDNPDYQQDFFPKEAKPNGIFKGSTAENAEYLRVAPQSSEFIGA

With CCc1cc(Nc2ncc(Br)c(Nc3ccc4nccnc4c3NS(C)(=O)=O)n2)c(OC)cc1N1CCC(N2CCN(CCc3cccc4c3n(CC)c(=O)n4C3CCC(=O)NC3=O)CC2)CC1 (stereo not shown) [Compound 11, N-(6-((5-bromo-2-((4-(4-(4-(2-(1-(2,6-dioxopiperidin-3-yl)-3-ethyl-2-oxo-2,3-dihydro-1H-benzo[d]imidazol-4-yl)ethyl)piperazin-1-yl)piperidin-1-yl)-5-ethyl-2-methoxyphenyl)amino)pyrimidin-4-yl)amino)quinoxalin-5-yl)methanesulfonamide] the “Potency in cell growth inhibition compared with Compound A (BaF3_SVD)” value ([1]; BaF3_SVD, comparison with Compound A, in words) was “significantly increased potency”, the GI50 ([1]; Table 7, BaF3_SVD cells) was 106 nM and the DC50 ([2]; compounds 24 h, western blot, read-out: BaF3_ASV DC50) was 22.4 nM. For the same molecule, the “Potency in degrading EGFR exon20 insertion mutant form compared with Compound A (BaF3_ASV)” value ([2]; BaF3_ASV, comparison with Compound A, in words) was “significantly increased potency”, the DC50 ([2]; Table 5, 24 h, read-out: DC50 (nM), 24 h, BaF3_ASV) was 22.4 nM and the GI50 ([3]; A-431, 24 h, Table 7, head prints 24 h, read-out: GI50 (nM), 24 h, A431) was 2500 nM. For the same molecule, the GI50 ([3]; A-431, 72 h, Table 6, three days, CellTiter-Glo, read-out: A431 GI50) was over 1000 nM.
